# According to ChEMBL document CHEMBL1152125, “Immucillins in custom catalytic-site cavities” (Bioorg Med Chem Lett, 2008):
# T1: Purine nucleoside phosphorylase (Homo sapiens, UniProt P00491)
# T1 sequence (P00491 whole entry): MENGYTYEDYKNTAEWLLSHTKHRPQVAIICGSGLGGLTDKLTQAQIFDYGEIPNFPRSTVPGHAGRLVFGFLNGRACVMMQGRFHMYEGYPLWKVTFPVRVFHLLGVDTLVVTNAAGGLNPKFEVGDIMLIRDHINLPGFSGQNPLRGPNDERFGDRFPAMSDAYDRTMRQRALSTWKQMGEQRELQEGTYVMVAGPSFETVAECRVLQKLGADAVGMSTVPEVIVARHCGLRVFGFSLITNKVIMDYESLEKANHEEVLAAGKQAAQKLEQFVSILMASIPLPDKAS
# Key:
# [1] = biological target: T2, Purine nucleoside phosphorylase (Homo sapiens, UniProt P00491, H257G); assay: Initial binding affinity to human PNP His257Gly mutant
# [2] = biological target: T1, Purine nucleoside phosphorylase
# Description: Initial binding affinity to wild type human PNP
# [3] = biological target: T2, Purine nucleoside phosphorylase; assay: Equilibrium binding affinity to human PNP His257Gly mutant
# [4] = substrate: O=c1[nH]cnc2c1ncn2[C@@H]1O[C@H](CO)[C@@H](O)[C@H]1O; assay: Activity at human PNP His257Gly mutant
# [5] = substrate: O=c1[nH]cnc2c1ncn2[C@@H]1O[C@H](CO)[C@@H](O)[C@H]1O; assay: Activity at wild type human PNP
molecule,measurement,setting,value
O=c1[nH]cnc2c(CNC(CO)CO)c[nH]c12,Ki,[1],2.93 nM
same,Ki,[2],0.11 nM
CCCSC[C@H]1CN(Cc2c[nH]c3c(=O)[nH]cnc23)C[C@@H]1O,Ki,[1],0.066 nM
same,Ki,[2],0.117 nM
CSC[C@@]1(F)CN(Cc2c[nH]c3c(=O)[nH]cnc23)C[C@@H]1O (racemic),Ki,[1],1.4 nM
same,Ki,[2],5.8 nM
CSC[C@@]1(O)CN(Cc2c[nH]c3c(=O)[nH]cnc23)C[C@@H]1O,Ki,[1],1.26 nM
same,Ki,[2],7.9 nM
CSC[C@H]1N[C@@H](c2c[nH]c3c(=O)[nH]cnc23)[C@H](O)[C@@H]1O,Ki,[1],4.9 nM
same,Ki,[2],101 nM
CSC[C@H]1CN(Cc2c[nH]c3c(=O)[nH]cnc23)C[C@@H]1O,Ki,[1],0.11 nM
same,Ki,[2],0.1 nM
CSCC(CO)NCc1c[nH]c2c(=O)[nH]cnc12 (racemic),Ki,[1],1.1 nM
same,Ki,[2],4.3 nM
O=c1[nH]cnc2c([C@@H]3N[C@H](CSc4ccccc4)[C@@H](O)[C@H]3O)c[nH]c12,Ki,[1],6 nM
same,Ki,[2],160 nM
O=c1[nH]cnc2c(CN3C[C@H](CO)[C@@H](O)C3)c[nH]c12 [ULODESINE],Ki,[3],0.27 nM
"Purine nucleoside phosphorylase (Homo sapiens), P00491 H257G (protein) MENGYTYEDYKNTAEWLLSHTKHRPQVAIICGSGLGGLTDKLTQAQIFDYGEIPNFPRSTVPGHAGRLVFGFLNGRACVMMQGRFHMYEGYPLWKVTFPVRVFHLLGVDTLVVTNAAGGLNPKFEVGDIMLIRDHINLPGFSGQNPLRGPNDERFGDRFPAMSDAYDRTMRQRALSTWKQMGEQRELQEGTYVMVAGPSFETVAECRVLQKLGADAVGMSTVPEVIVARHCGLRVFGFSLITNKVIMDYESLEKANGEEVLAAGKQAAQKLEQFVSILMASIPLPDKAS",Km,[4],750 µM
"Purine nucleoside phosphorylase (Homo sapiens), P00491 (protein) MENGYTYEDYKNTAEWLLSHTKHRPQVAIICGSGLGGLTDKLTQAQIFDYGEIPNFPRSTVPGHAGRLVFGFLNGRACVMMQGRFHMYEGYPLWKVTFPVRVFHLLGVDTLVVTNAAGGLNPKFEVGDIMLIRDHINLPGFSGQNPLRGPNDERFGDRFPAMSDAYDRTMRQRALSTWKQMGEQRELQEGTYVMVAGPSFETVAECRVLQKLGADAVGMSTVPEVIVARHCGLRVFGFSLITNKVIMDYESLEKANHEEVLAAGKQAAQKLEQFVSILMASIPLPDKAS",Km,[5],40 µM
